The NIST ThermoML archive (doi:10.1016/j.fluid.2017.12.010)

Details: Liquid, Vibrating tube method

CCCCCCCCCCCC [dodecane]
Details	mass density [kg/m3]
283.29 K, 100 kPa	756
283.29 K, 1000 kPa	757
283.29 K, 3000 kPa	758
283.3 K, 5000 kPa	760
283.3 K, 10000 kPa	763
283.3 K, 30000 kPa	775
283.3 K, 40000 kPa	780
283.3 K, 50000 kPa	785
283.3 K, 60000 kPa	790
283.31 K, 20000 kPa	769
283.31 K, 70000 kPa	795
283.32 K, 80000 kPa	799
283.32 K, 90000 kPa	803
293.17 K, 100 kPa	749
293.18 K, 1000 kPa	750
293.19 K, 5000 kPa	753
293.19 K, 10000 kPa	756
293.19 K, 20000 kPa	763
293.19 K, 30000 kPa	769
293.19 K, 40000 kPa	774
293.19 K, 50000 kPa	780
293.19 K, 70000 kPa	789
293.19 K, 80000 kPa	794
293.19 K, 90000 kPa	798
293.19 K, 100000 kPa	802
293.2 K, 60000 kPa	785
303.04 K, 30000 kPa	762
303.04 K, 100000 kPa	797
303.05 K, 100 kPa	742
303.05 K, 1000 kPa	743
303.05 K, 5000 kPa	746
303.05 K, 20000 kPa	756
303.05 K, 50000 kPa	774
303.05 K, 60000 kPa	779
303.05 K, 70000 kPa	784
303.05 K, 80000 kPa	789
303.05 K, 90000 kPa	793
303.06 K, 10000 kPa	749
303.06 K, 40000 kPa	768
312.89 K, 100 kPa	736
312.89 K, 1000 kPa	737
312.9 K, 5000 kPa	740
312.9 K, 10000 kPa	744
312.9 K, 20000 kPa	751
312.9 K, 30000 kPa	757
312.9 K, 40000 kPa	763
312.9 K, 50000 kPa	769
312.9 K, 60000 kPa	774
312.9 K, 70000 kPa	780
312.9 K, 80000 kPa	784
312.9 K, 90000 kPa	789
312.9 K, 100000 kPa	793
322.83 K, 100 kPa	727
322.83 K, 1000 kPa	728
322.83 K, 5000 kPa	732
322.83 K, 10000 kPa	736
322.83 K, 20000 kPa	743
322.83 K, 30000 kPa	750
322.83 K, 40000 kPa	756
322.83 K, 50000 kPa	762
322.83 K, 60000 kPa	768
322.83 K, 70000 kPa	773
322.83 K, 80000 kPa	778
322.83 K, 90000 kPa	783
322.83 K, 100000 kPa	787
332.74 K, 100 kPa	720
332.74 K, 1000 kPa	721
332.74 K, 5000 kPa	725
332.74 K, 10000 kPa	729
332.74 K, 20000 kPa	737
332.74 K, 30000 kPa	744
332.74 K, 40000 kPa	750
332.74 K, 50000 kPa	757
332.74 K, 60000 kPa	762
332.74 K, 70000 kPa	768
332.74 K, 80000 kPa	773
332.74 K, 90000 kPa	778
332.75 K, 100000 kPa	782
342.67 K, 100 kPa	713
342.67 K, 1000 kPa	714
342.67 K, 5000 kPa	718
342.67 K, 10000 kPa	722
342.67 K, 20000 kPa	731
342.67 K, 30000 kPa	738
342.67 K, 40000 kPa	745
342.67 K, 50000 kPa	751
342.67 K, 60000 kPa	757
342.67 K, 69990 kPa	763
342.67 K, 80000 kPa	768
342.67 K, 90000 kPa	773
342.67 K, 100000 kPa	778
352.58 K, 100 kPa	707
352.58 K, 1000 kPa	708
352.58 K, 5000 kPa	712
352.58 K, 10000 kPa	716
352.58 K, 20000 kPa	725
352.58 K, 30000 kPa	733
352.58 K, 40000 kPa	740
352.58 K, 50000 kPa	747
352.58 K, 60000 kPa	753
352.58 K, 70000 kPa	759
352.58 K, 80000 kPa	764
352.58 K, 90000 kPa	769
352.58 K, 100000 kPa	774
362.48 K, 5000 kPa	704
362.48 K, 10000 kPa	709
362.48 K, 20000 kPa	718
362.48 K, 30000 kPa	726
362.48 K, 50000 kPa	741
362.48 K, 80000 kPa	759
362.48 K, 90000 kPa	764
362.49 K, 100 kPa	699
362.49 K, 1000 kPa	700
362.49 K, 40000 kPa	734
362.49 K, 60000 kPa	747
362.49 K, 70000 kPa	753
362.49 K, 100000 kPa	769
